Laboratory results reported in publication PMC2114115 (The Journal of Cell Biology, 1986).

Assays:
GH4C1 cells [1] = assay: Acid/salt extraction: cellular distribution of receptor-bound 125I-EGF; format: cell-based, rat; details: pulse-chase at 37 degrees C after binding 5 h at 4C, 80 pM (Fig. 2)
GH4C1 cells [2] = assay: Release and degradation of cell-bound 125I-EGF; format: cell-based, rat; details: 37C; for half-time for the release of 125I-tyrosine derived from receptor-bound 125I-EGF: Fig. 6, control cells or 0.1 mM chloroquine, 59 pM, 90 min binding; for subsequent rate of release of 125I-tyrosine from 125I-EGF: chloroquine 0.1 mM, leupeptin 0.1 mg/ml
GH4C1 cells [3] = assay: Release and degradation of cell-bound [125I-Tyr1]SRIF; format: cell-based, rat; details: for effect on receptor-mediated degradation of [125I-Tyr1]SRIF: Table V conditions, compound in dissociation medium, 60 min at 37C; for rate of dissociation or degradation of prebound [125I-Tyr1]SRIF / half-time of release of radioactivity after [125I-Tyr1]SRIF binding: 37C; for rate of dissociation or degradation of prebound [125I-Tyr1]SRIF: chloroquine 0.1 mM, leupeptin 0.1 mg/ml; for half-time of release of radioactivity after [125I-Tyr1]SRIF binding: Fig. 6, absence or presence of 0.1 mM chloroquine, or 0.1 mg/ml leupeptin, 35 pM, 60 min binding
[4] = system: SRIF receptors of GH4C1 cells; assay: Specific binding of [125I-Tyr1]SRIF to GH4C1 cells; parameters: species or system rat; details: for cellular accumulation of total or acid-resistant [125I-Tyr1]SRIF: ammonium chloride 20 mM, leupeptin 0.1 mg/ml; for [125I-Tyr1]SRIF bound, Total: Table III, control, leupeptin 0.1 mg/ml or chloroquine 0.1 mM
[5] = molecular target: EGF receptors of GH4C1 cells (Rattus norvegicus, UniProt G3V6K6); assay: Specific binding of 125I-EGF to GH4C1 cells; details: for amount of cell-associated 125I-EGF: Fig. 5, prolonged 37C binding incubations, chloroquine 0.1 mM, leupeptin 0.1 mg/ml
GH4C1 cells [6] = details: 37C; cited from earlier work
GH4C1 cells [7] = details: Koch and Schonbrunn, unpublished observations; cited from earlier work
GH4C1 cell membranes = assay: Binding, dissociation and degradation of [125I-Tyr1]SRIF with cell membranes; parameters: species or system rat; details: Table IV; dissociation incubation 4 h at 37C; without or with 100 nM SRIF
[8] = Table V Exp. 2, control or a2-macroglobulin 50 ug/ml

125I-EGF: radioiodinated epidermal growth factor, chloramine T iodination
half-time of transfer from acid-sensitive to acid-resistant compartment (GH4C1 cells [1]): 2 min
half-time for the release of 125I-tyrosine derived from receptor-bound 125I-EGF (GH4C1 cells [2]): 45 min

O=S(=O)(F)Cc1ccccc1 [PMSF, phenylmethylsulfonyl fluoride]
effect on receptor-mediated degradation of [125I-Tyr1]SRIF (GH4C1 cells [3]): same small effect

CC(C)C[C@H](NP(=O)(O)O[C@@H]1O[C@@H](C)[C@H](O)[C@@H](O)[C@H]1O)C(=O)N[C@@H](Cc1c[nH]c2ccccc12)C(=O)O [Phosphoramidon, phosphoramidon]
effect on receptor-mediated degradation of [125I-Tyr1]SRIF (GH4C1 cells [3]): substantially inhibited

Cc1ccc(S(=O)(=O)NC(CCCCN)C(=O)CCl)cc1 [TLCK, Na-p-tosyl-L-lysine chloromethyl ketone]
effect on receptor-mediated degradation of [125I-Tyr1]SRIF (GH4C1 cells [3]): same small effect

Cc1ccc(S(=O)(=O)N[C@@H](Cc2ccccc2)C(=O)CCl)cc1 [TPCK, L-l-tosylamide 2-phenylethyl chloromethyl ketone]
effect on receptor-mediated degradation of [125I-Tyr1]SRIF (GH4C1 cells [3]): substantially inhibited

Cl.N [ammonium chloride]
[125I-Tyr1]SRIF binding ([4]; 20 mM ammonium chloride, 4 h at 37C, same experiment): unaffected
cellular accumulation of total or acid-resistant [125I-Tyr1]SRIF ([4]; 37C, chloroquine 0.1 mM): none of these inhibitors increased
amount of 125I-EGF bound to cells ([5]; 20 mM ammonium chloride, 4 h at 37C): 210 % of untreated controls

O=C(O)c1cc[c]([Hg][Cl])cc1 [chloromercuribenzoate]
effect on receptor-mediated degradation of [125I-Tyr1]SRIF (GH4C1 cells [3]): substantially inhibited

CCN(CC)CCCC(C)Nc1ccnc2cc(Cl)ccc12 (centres unmarked) [chloroquine]
cellular accumulation of total or acid-resistant [125I-Tyr1]SRIF ([4]; 37C, chloroquine 0.1 mM): none of these inhibitors increased
[125I-Tyr1]SRIF bound, Total ([4]; chase 30 min at 37C): 3,491 cpm
[125I-Tyr1]SRIF bound, Total ([4]; chase 60 min at 37C): 1,725 cpm
decrease in [125I-Tyr1]SRIF binding ([4]; chloroquine 0.1 mM, 37C, all times): 50%
rate of dissociation or degradation of prebound [125I-Tyr1]SRIF (GH4C1 cells [3]): did not alter
half-time of release of radioactivity after [125I-Tyr1]SRIF binding (GH4C1 cells [3]): 41 min
subsequent rate of release of 125I-tyrosine from 125I-EGF (GH4C1 cells [2]): decreased
half-time for the release of 125I-tyrosine derived from receptor-bound 125I-EGF (GH4C1 cells [2]): 150 min
amount of cell-associated 125I-EGF [5]: increased

NC(=O)CI [iodoacetamide]
effect on receptor-mediated degradation of [125I-Tyr1]SRIF (GH4C1 cells [3]): substantially inhibited

CC(=O)N[C@@H](CC(C)C)C(=O)N[C@@H](CC(C)C)C(=O)N[C@H](C=O)CCCNC(=N)N [leupeptin]
cellular accumulation of total or acid-resistant [125I-Tyr1]SRIF ([4]; 37C, chloroquine 0.1 mM): none of these inhibitors increased
[125I-Tyr1]SRIF bound, Total ([4]; chase 30 min at 37C): 5,537 cpm
[125I-Tyr1]SRIF bound, Total ([4]; chase 60 min at 37C): 3,385 cpm
rate of dissociation or degradation of prebound [125I-Tyr1]SRIF (GH4C1 cells [3]): did not alter
half-time of release of radioactivity after [125I-Tyr1]SRIF binding (GH4C1 cells [3]): 48 min
subsequent rate of release of 125I-tyrosine from 125I-EGF (GH4C1 cells [2]): decreased
amount of cell-associated 125I-EGF [5]: increased

COc1ccc(C[C@H](N)C(=O)N[C@H]2[C@@H](O)[C@H](n3cnc4c(N(C)C)ncnc43)O[C@@H]2CO)cc1 [puromycin]
effect on receptor-mediated degradation of [125I-Tyr1]SRIF (GH4C1 cells [3]): same small effect

a2-macroglobulin
125I released (GH4C1 cells [3]; [8]): 2,217 cpm
% Intact [125I-Tyr1]SRIF (GH4C1 cells [3]; [8]): 64%
effect on receptor-mediated degradation of [125I-Tyr1]SRIF (GH4C1 cells [3]): same small effect

bacitracin
effect on receptor-mediated degradation of [125I-Tyr1]SRIF (GH4C1 cells [3]): same small effect

epidermal growth factor (NSYPGCPSSYDGYCLNGGVCMHIESLDSYTCNCVIGYSGDRCQTRDLRWWELR; not fully specified; Epidermal growth factor; UniProt P01132 977-1029, looked up) [EGF]
time for transformation from acid-extractable to acid-resistant state (GH4C1 cells [6]): ≤ 10 min

somatostatin [SRIF]
time to maximal inhibitory effect on hormone secretion (GH4C1 cells [7]): ≤ 5 min
125I bound (GH4C1 cell membranes): 9,695 cpm
125I dissociated (GH4C1 cell membranes): 10,791 cpm
% Intact [125I-Tyr1]SRIF (GH4C1 cells [3]; Table V Exp. 1, SRIF 0.1 mM in dissociation medium): 65%
effect on receptor-mediated degradation of [125I-Tyr1]SRIF (GH4C1 cells [3]): only a slight effect
